Measured values as given in patent US10323027B2, “2,3-dihydro-4H-1,3-benzoxazin-4-one derivatives as modulators of cholinergic muscarinic M1 receptor” (Takeda Pharmaceutical Company Limited, priority 2015, dated 2019).

Target: T1, human M1 receptor (hCHRM1) (Homo sapiens, UniProt P11229)
T1 construct: expressed in transfected cells
T1 sequence (P11229 1-460): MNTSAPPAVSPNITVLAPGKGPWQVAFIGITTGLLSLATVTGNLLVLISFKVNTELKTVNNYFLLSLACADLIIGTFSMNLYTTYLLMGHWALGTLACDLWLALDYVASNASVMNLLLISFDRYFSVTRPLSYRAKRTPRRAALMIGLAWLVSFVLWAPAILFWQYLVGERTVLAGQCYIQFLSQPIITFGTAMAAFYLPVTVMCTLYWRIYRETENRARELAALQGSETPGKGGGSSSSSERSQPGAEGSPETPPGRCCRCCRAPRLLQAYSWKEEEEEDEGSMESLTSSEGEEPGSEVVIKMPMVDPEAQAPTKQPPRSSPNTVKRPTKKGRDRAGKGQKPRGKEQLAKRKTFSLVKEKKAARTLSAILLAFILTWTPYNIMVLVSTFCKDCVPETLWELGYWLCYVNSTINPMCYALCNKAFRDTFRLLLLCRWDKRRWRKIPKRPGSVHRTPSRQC
Experiment: Measurement of M1 receptor positive allosteric modulator (M1PAM) activity, Ca2+ fluorescence by FLIPRtetra (Experimental Example 1)
Type: cell-based
Details: for activity (%) at 10 μM: 10 μM test compound, 100% = acetylcholine 1 μM, 0% = DMSO; for EC50: inflection point of concentration-dependent curve, in presence of acetylcholine at EC20 (0.8-1.0 nM), CHO-K1 cells expressing hCHRM1, read-out: IP value
Experimental: Measurement of M1 Receptor Positive Allosteric Modulator (M1PAM) Activity
The activity of a test compound in the presence of acetylcholine at EC20 concentration (final concentration 0.8-1.0 nM), which affords an action corresponding to about 20% of the maximum activity, was measured as PAM activity. The method is as follows. CHO-K1 cells stably expressing a human M1 receptor (hCHRM1) were plated on a 384-well black clear bottom plate (BD Falcon) at 5,000 cells/well, and cultured in an incubator at 37° C., 5% CO2 for 1 day. The medium in the cell plate was removed, and a dye solution (prepared by adding Recording medium (DOJINDO LABORATORIES) to a final concentration of 1×concentration, Fluo-4 AM (DOJINDO LABORATORIES) to a final concentration of 2.5 μg/mL, Pluronic F127 (DOJINDO LABORATORIES) to a final concentration of 0.08%, and probenecid (DOJINDO LABORATORIES) to a final concentration of 1.25 mM to assay buffer (HBSS (Invitrogen), 20 mM HEPES (Invitrogen), 0.1% BSA (Wako Pure Chemical Industries, Ltd.))) was added at 30 μL/well. The cells were left standing in the incubator at 37° C., 5% CO2 for 30 min, and further left standing at room temperature for 30 min. A test compound prepared by diluting with assay buffer containing 3.2-4.0 nM acetylcholine was added at 10 μL/well, and the fluorescence was measured by FLIPRtetra (Molecular Devices) for 1 min every 1 second. With the definition that the amount of change in the fluorescence on addition of acetylcholine (final concentration 1 μM) is 100% and that on addition of DMSO instead of a test compound is 0%, the activity (%) of the test compound was calculated, and the inflection point in the concentration-dependent curve of the test compound was calculated as IP values.

Compound	activity (%) at 10 μM	EC50
COc1c(Cc2ccc(-n3cccn3)nc2)cc2c(c1F)OCN([C@H]1CCC[C@@H]1O)C2=O (relative stereo) [Example 15, 8-fluoro-3-(trans-2-hydroxycyclopentyl)-7-methoxy-6-((6-(1H-pyrazol-1-yl)pyridin-3-yl)methyl)-2,3-dihydro-4H-1,3-benzoxazin-4-one]	92%	19 nM
Cc1c(Cc2ccc(-n3cccn3)cc2)cc2c(c1F)OCN([C@H]1CCC[C@@H]1O)C2=O (relative stereo) [Example 30, 8-fluoro-3-(trans-2-hydroxycyclopentyl)-7-methyl-6-(4-(1H-pyrazol-1-yl)benzyl)-2,3-dihydro-4H-1,3-benzoxazin-4-one]	102%	8.6 nM
Cc1cc2c(cc1Cc1ccc(-n3cccn3)nc1)C(=O)N([C@H]1CCCC[C@@H]1O)CO2 (relative stereo) [Example 36, 3-(trans-2-hydroxycyclohexyl)-7-methyl-6-((6-(1H-pyrazol-1-yl)pyridin-3-yl)methyl)-2,3-dihydro-4H-1,3-benzoxazin-4-one]	108%	12 nM
COc1c(Cc2ccc(-n3ccnc3)nc2)cc2c(c1F)OCN([C@H]1CCC[C@@H]1O)C2=O (relative stereo) [Example 48, 8-fluoro-3-(trans-2-hydroxycyclopentyl)-6-((6-(1H-imidazol-1-yl)pyridin-3-yl)methyl)-7-methoxy-2,3-dihydro-4H-1,3-benzoxazin-4-one]	106%	7.4 nM

Continued, values first:

activity (%) at 10 μM	EC50	Compound
99%	17 nM	Cc1c(Cc2ccc(Cl)nc2)cc2c(c1C)OCN([C@H]1COCC[C@@H]1O)C2=O (relative stereo) [Example 31, 1,5-anhydro-2-(6-((6-chloropyridin-3-yl)methyl)-7,8-dimethyl-4-oxo-2H-1,3-benzoxazin-3(4H)-yl)-2,4-dideoxy-threo-pentitol]
104%	39 nM	Cc1ccc(Cc2cc3c(cc2C)OCN([C@H]2CCCC[C@@H]2O)C3=O)cn1 (relative stereo) [Example 33, 3-(trans-2-hydroxycyclohexyl)-7-methyl-6-((6-methylpyridin-3-yl)methyl)-2,3-dihydro-4H-1,3-benzoxazin-4-one]
88%	1.5 nM	Cc1c(Cc2ccc(-n3ccnc3)nc2)cc2c(c1Cl)OCN([C@H]1CCC[C@@H]1O)C2=O (relative stereo) [Example 39, 8-chloro-3-(trans-2-hydroxycyclopentyl)-6-((6-(1H-imidazol-1-yl)pyridin-3-yl)methyl)-7-methyl-2,3-dihydro-4H-1,3-benzoxazin-4-one]
104%	1.8 nM	Cn1cc(-c2ccc(Cc3cc4c(c5ccccc35)OCN([C@H]3CCCC[C@@H]3O)C4=O)cn2)cn1 (relative stereo) [Example 41, 3-(trans-2-hydroxycyclohexyl)-6-((6-(1-methyl-1H-pyrazol-4-yl)pyridin-3-yl)methyl)-2,3-dihydro-4H-naphtho[2,1-e][1,3]oxazin-4-one]
108%	8 nM	Cc1c(Cc2ccc(-c3cnn(C)c3)nc2)cc2c(c1C)OCN([C@H]1CCCC[C@@H]1O)C2=O (relative stereo) [Example 49, 3-(trans-2-hydroxycyclohexyl)-7,8-dimethyl-6-((6-(1-methyl-1H-pyrazol-4-yl)pyridin-3-yl)methyl)-2,3-dihydro-4H-1,3-benzoxazin-4-one]
101%	9.7 nM	Cc1c(Cc2ccc(-n3cccn3)nc2)cc2c(c1Cl)OCN([C@H]1CCC[C@@H]1O)C2=O (relative stereo) [Example 51, 8-chloro-3-(trans-2-hydroxycyclopentyl)-7-methyl-6-((6-(1H-pyrazol-1-yl)pyridin-3-yl)methyl)-2,3-dihydro-4H-1,3-benzoxazin-4-one]
